Measured values reported in patent US20250255867A1 (Kadmon Corporation, LLC, priority 2022, published 2025).

Experiments:
Format in all cases: in vivo, human
subjects with cGVHD [1] = assay: Example 2 phase II randomized study: cGVHD response per 2014 NIH Consensus Criteria (best ORR, organ ORR, DOR, time to response); settings: for Best ORR: mITT
Method: (§1) All responses were assessed by the study site investigators.

subjects with BOS [2] = assay: Example 3 combined analysis: lung-specific NIH response in BOS
Method: Subjects enrolled in the clinical studies described in Examples 1 and 2 served as the population for the combined analysis.
(§2) Patients with BOS were identified as: 1) % predicted forced expiratory volume in 1 second (% FEV1) of £79% at enrollment, and 2) clinician attribution of lung disease due to cGVHD.
(§3) In Example 1, lung function assessments were conducted at baseline and on Day 1 of each cycle for patients with suspected of known lung involvement. In Example 2, lung function assessments were conducted at baseline and at the time of response assessments: Day 1 of cycles 2-5 and then on Day 1 of every other cycle thereafter.
The severity of cGVHD was graded according to the 2014 NIH Consensus Criteria. […] According to these criteria, a complete response (CR) in the lung is defined as normal % FEV1 after previous involvement or in the absence of PFTs, a NIH lung Symptom Score of 0 after previous involvement. Partial response (PR) in the lung is defined as an increase by 10% predicted absolute value of % FEV1 or in the absence of PFTs, a decrease in NIH Lung Symptom Score by 1 or more points. Progression of lung disease is defined as a decrease by 10% predicted absolute value of % FEV1 or in the absence of PFTs, an increase in NIH Lung Symptom Score by 1 or more points, except 0 to 1.
Baseline characteristics were reported descriptively. Univariable and multivariable logistic regression analysis was performed to investigate clinical factors (listed in Table 1) that were associated with NIH lung response. Correlation analysis was performed to assess correlation among lung response metrics. All testing was two-sided at the significance level of 0.05. All analyses were performed using SAS 9.3 (SAS Institute Inc., Cary, NC), and R v3.5.2 (the CRAN project).

patients with cGVHD = assay: Example 1: time to next therapy, failure-free survival, overall survival
Method: Time to next therapy (TTNT). The TTNT was defined as the time (in months) from first treatment to the time of new systemic cGVHD treatment. TTNT was censored by last response assessment or long term follow up assessment, whichever was earlier. Kaplan-Meier survival method was used for the analysis. […] Analysis was performed on mITT population.
Failure-free survival was defined as the time (in months) from first dose of study drug to either the start of another new systemic treatment for cGVHD, relapse of the underlying disease or death. If no such events happened, FFS was censored by last response assessment or long term follow up assessment, whichever was the latest and available. Kaplan-Meier survival method was used for the analysis. Analysis was performed on mITT population.
Overall survival was defined as the time (in months) from first dose of study drug to the death due to any reason. If there was no death, OS was censored by last visit, last long term follow-up, or study cutoff date, whichever was the latest. Kaplan-Meier survival method was used for the analysis.

subjects with BOS [3] = assay: Example 3: FEV1 evaluation in BOS
Method: as §2, §3

subjects with cGVHD [4] = assay: Example 2: corticosteroid and other immunosuppressant reduction/discontinuation
Method: as §1

[5] = 200 mg BID (n = 66), 42 with organ involved
[6] = 200 mg BID (n = 66), 49 with organ involved
[7] = 200 mg QD (n = 66), 19 with organ involved
[8] = 200 mg daily (n = 66), mITT population
[9] = 200 mg twice daily (n = 66), mITT population
[10] = Total (N = 132), 100 with organ involved
[11] = Total (N = 132), mITT population
[12] = NIH Lung Score at baseline 1, 30 subjects
[13] = NIH Lung Score at baseline 2, 23 subjects
[14] = NIH Lung Score at baseline 3, 6 subjects

SMILES: CC(C)NC(=O)COc1cccc(-c2nc(Nc3ccc4[nH]ncc4c3)c3ccccc3n2)c1 [Belumosudil, 2-{3-[4-(1H-indazol-5-ylamino)-2-quinazolinyl]phenoxy}-N-(propan-2-yl) acetamide]
- PR, Liver (subjects with cGVHD [1]; 200 mg BID (n = 66), 4 with organ involved): 0 n (%)
- PR, Upper GI (subjects with cGVHD [1]; 200 mg BID (n = 66), 10 with organ involved): 0 n (%)
- PR, Esophagus (subjects with cGVHD [1]; 200 mg BID (n = 66), 12 with organ involved): 0 n (%)
- CR, Mouth (subjects with cGVHD [1]; [5]): 17 (41) n (%)
- ORR, Mouth (subjects with cGVHD [1]; [5]): 24 (57) n (%)
- CR, Eyes (subjects with cGVHD [1]; [6]): 6 (12) n (%)
- ORR, Joints and fascia (subjects with cGVHD [1]; [6]): 33 (67) n (%)
- PR, Skin (subjects with cGVHD [1]; 200 mg BID (n = 66), 55 with organ involved): 13 (24) n (%)
- PR, Lower GI (subjects with cGVHD [1]; 200 mg QD (n = 66), 6 with organ involved): 0 n (%)
- ORR, Upper GI (subjects with cGVHD [1]; 200 mg QD (n = 66), 13 with organ involved): 8 (62) n (%)
- CR, Esophagus (subjects with cGVHD [1]; [7]): 9 (47) n (%)
- PR, Esophagus (subjects with cGVHD [1]; [7]): 0 n (%)
- CR, responses occurring within 6 mo of treatment (subjects with cGVHD [1]; [8]): 2 (3) n (%)
- CR, responses occurring within 12 mo of treatment (subjects with cGVHD [1]; [8]): 4 (6) n (%)
- ORR for responses occurring within 6 mo of treatment (subjects with cGVHD [1]; [8]): 47 (71) n (%)
- Best ORR (subjects with cGVHD [1]; 200 mg daily): 74%
- CR, responses occurring within 6 mo of treatment (subjects with cGVHD [1]; [9]): 1 (2) n (%)
- CR, responses occurring within 12 mo of treatment (subjects with cGVHD [1]; [9]): 2 (3) n (%)
- ORR (subjects with cGVHD [1]; [9]): 51 (77) n (%)
- ORR for responses occurring within 12 mo of treatment (subjects with cGVHD [1]; [9]): 50 (76) n (%)
- PR, responses occurring within 6 mo of treatment (subjects with cGVHD [1]; [9]): 47 (71) n (%)
- PR, responses occurring within 12 mo of treatment (subjects with cGVHD [1]; [9]): 48 (73) n (%)
- Best ORR (subjects with cGVHD [1]; 200 mg twice daily): 77%
- Median increase in FEV1, lung CR based on normalization of FEV1 (subjects with cGVHD [1]; 3 subjects, range, 18-25): 23%
- PR, Esophagus (subjects with cGVHD [1]; Total (N = 132), 31 with organ involved): 0 n (%)
- CR, Eyes (subjects with cGVHD [1]; Total (N = 132), 97 with organ involved): 14 (14) n (%)
- CR, Joints and fascia (subjects with cGVHD [1]; [10]): 20 (20) n (%)
- ORR, Joints and fascia (subjects with cGVHD [1]; [10]): 71 (71) n (%)
- PR, Joints and fascia (subjects with cGVHD [1]; [10]): 51 (51) n (%)
- CR, Skin (subjects with cGVHD [1]; Total (N = 132), 110 with organ involved): 18 (16) n (%)
- CR, responses occurring within 6 mo of treatment (subjects with cGVHD [1]; [11]): 3 (2) n (%)
- CR, responses occurring within 12 mo of treatment (subjects with cGVHD [1]; [11]): 6 (5) n (%)
- PR, responses occurring within 6 mo of treatment (subjects with cGVHD [1]; [11]): 92 (70) n (%)
- PR, responses occurring within 12 mo of treatment (subjects with cGVHD [1]; [11]): 93 (71) n (%)
- Best ORR in subjects refractory to their last lines of therapy (subjects with cGVHD [1]; in vivo): 75%
- ORR, prior ruxolitinib therapy subgroup (subjects with cGVHD [1]; pooled arms, n=38): 68%
- ORR, prior ibrutinib therapy subgroup (subjects with cGVHD [1]; pooled arms, n=46): 74%
- Median increase in FEV1, all subjects achieving lung PR (subjects with cGVHD [1]; range, 0-15): 10%
- Overall median time to response (subjects with cGVHD [1]; range, 4-66): 5 weeks
- Median DOR (subjects with cGVHD [1]; responder population): 54 weeks
- Best ORR for pulmonary cGVHD, NIH response criteria (subjects with BOS [2]; 59 subjects): 32%
- PR for pulmonary cGVHD, NIH response criteria (subjects with BOS [2]; 59 subjects): 17%
- Lung-specific NIH response, Best ORR (subjects with BOS [2]; [12]): 50%
- Lung-specific NIH response, CR rate (subjects with BOS [2]; [12]): 27%
- Lung-specific NIH response, PR rate (subjects with BOS [2]; [12]): 23%
- Lung-specific NIH response, Best ORR (subjects with BOS [2]; [13]): 17%
- Lung-specific NIH response, CR rate (subjects with BOS [2]; [13]): 4%
- Lung-specific NIH response, PR rate (subjects with BOS [2]; [13]): 13%
- Lung-specific NIH response, Best ORR (subjects with BOS [2]; [14]): 0%
- Lung-specific NIH response, CR rate (subjects with BOS [2]; [14]): 0%
- Lung-specific NIH response, PR rate (subjects with BOS [2]; [14]): 0%
- Lung-specific NIH response, Best ORR (subjects with BOS [2]; Total, 59 subjects): 32%
- Lung-specific NIH response, CR rate (subjects with BOS [2]; Total, 59 subjects): 15%
- Lung-specific NIH response, PR rate (subjects with BOS [2]; Total, 59 subjects): 17%
- Best lung ORR (subjects with BOS [2]; baseline NIH lung score 1): 50%
- Lung CR (subjects with BOS [2]; baseline NIH lung score 1): 27%
- Lung PR (subjects with BOS [2]; baseline NIH lung score 1): 23%
- Best lung ORR (subjects with BOS [2]; baseline NIH lung score 2): 17%
- Lung CR (subjects with BOS [2]; baseline NIH lung score 2): 4%
- Lung PR (subjects with BOS [2]; baseline NIH lung score 2): 13%
- Best ORR for lung cGVHD, NIH response with PFTs alone (subjects with BOS [2]; in vivo): 24%
- CR for lung cGVHD, PFTs alone (subjects with BOS [2]; in vivo): 10%
- PR for lung cGVHD, PFTs alone (subjects with BOS [2]; in vivo): 14%
- Median time to first NIH lung response (subjects with BOS [2]; range, 3-39): 5 cycles
- Median time to best NIH lung response (subjects with BOS [2]; range, 3-41): 7 cycles
- FFS rate at 6 months (patients with cGVHD): 76%
- FFS rate at 12 months (patients with cGVHD): 47%
- Subjects with ^3 5% absolute improvement in % FEV1 from baseline (subjects with BOS [3]; 59 subjects): 39%
- Subjects with ^3 10% absolute improvement in % FEV1 from baseline (subjects with BOS [3]; 59 subjects): 22%
- Subjects with at least a 200 mL improvement in FEV1 from baseline (subjects with BOS [3]; Example 2 subjects only): 36%
- Subjects with ^3 5% absolute improvement in % FEV1 (subjects with BOS [3]; baseline NIH lung score 1): 57%
- Subjects with ^3 5% absolute improvement in % FEV1 (subjects with BOS [3]; baseline NIH lung score 2): 13%
- Subjects with ^3 5% absolute improvement in % FEV1 (subjects with BOS [3]; baseline NIH lung score 3): 50%
- Subjects with at least a 200 mL improvement in FEV1 (subjects with BOS [3]; baseline lung score 1): 41%
- Subjects with at least a 200 mL improvement in FEV1 (subjects with BOS [3]; baseline lung score 2): 31%
- Subjects with 200 mL improvement in FEV1 (subjects with BOS [3]; non-responders): 19%
- Subjects with ^3 5% absolute improvement in % FEV1 (subjects with BOS [3]; non-responders): 18%
- Subjects with 200 mL improvement in FEV1 (subjects with BOS [3]; responders by NIH criteria): 66%
- Subjects with ^3 5% absolute improvement in % FEV1 (subjects with BOS [3]; responders by NIH criteria): 84%
- Mean change in CS dose from baseline, Nonresponder (subjects with cGVHD [4]; 200 mg daily): −22%
- Mean change in CS dose from baseline, Responder (subjects with cGVHD [4]; 200 mg daily): −49%
- CS discontinuation (subjects with cGVHD [4]; [8]): 13 (20) n (%)
- Mean change in CS dose from baseline, Overall (subjects with cGVHD [4]; [8]): −43%
- Median CS reduction from baseline to greatest reduction (subjects with cGVHD [4]; [8]): 38%
- Proportion with CS reduction (subjects with cGVHD [4]; [8]): 42 (64) n (%)
- Mean change in CS dose from baseline, Nonresponder (subjects with cGVHD [4]; 200 mg twice daily): −10%
- Mean change in CS dose from baseline, Responder (subjects with cGVHD [4]; 200 mg twice daily): −58%
- Mean change in CS dose from baseline, Overall (subjects with cGVHD [4]; [9]): −48%
- Median CS reduction from baseline to greatest reduction (subjects with cGVHD [4]; [9]): 50%
- Mean change in CS dose from baseline, Nonresponder (subjects with cGVHD [4]; Total): −16%
- Mean change in CS dose from baseline, Responder (subjects with cGVHD [4]; Total): −54%
- Mean change in CS dose from baseline, Overall (subjects with cGVHD [4]; [11]): −45%
- Median CS reduction from baseline to greatest reduction (subjects with cGVHD [4]; [11]): 50%
- Subjects who discontinued CNI therapy (subjects with cGVHD [4]; in vivo): 22%
- Subjects who discontinued mycophenolate mofetil (subjects with cGVHD [4]; in vivo): 21%
- Subjects who discontinued sirolimus (subjects with cGVHD [4]; in vivo): 20%
- Mean corticosteroid dose reduction (subjects with cGVHD [4]; mITT): 45%
- Mean corticosteroid dose reduction (subjects with cGVHD [4]; responders): 54%
